Square brackets hold non-standard residues; d marks the D form. Peptide text beside a SMILES is read from it. * marks the point of attachment. Dolaproine = CO[C@@H]([C@@H]1CCCN1)[C@@H](C)C(=O)O; Dil = CC[C@H](C)[C@H](NC)[C@@H](CC(=O)O)OC; X1 = C[C@@H](N*)[C@@H](O)c1ccccc1; NMeV = CN[C@H](C(=O)O)C(C)C
Columns and labels:
[1] = system: humanized antibody ABC3320 (Heavy chain: SEQ ID NO: 163; Light chain: SEQ ID NO: 164); assay: Blocking experiment (ELISA, OVA-MMAF coated); type: binding; details: MMAE+ antibody; OVA-MMAF coated 200 ng/mL; antibody 100 ng/mL; control in Tables 6, 8, 10, 12
Experimental: (§1) Blocking Experiment: OVA-MMAF was coated onto ELISA plates at a concentration of 200 ng/mL and incubated at 37°C for 1 h. The plates were blocked with 5% skim milk and incubated at 37°C for 2 h. The antibody was diluted to a final concentration of 100 ng/mL. MMAE and MMAE-Linker were diluted at concentrations of 600, 200, 66.67, 22.22, 7.41, 2.47, 0.82, 0.27, 0.09, 0.03, and 0.01 nM. 50 µL MMAE + 50 µL chimeric antibody and 50 µL MMAE-Linker + 50 µL chimeric antibody were added respectively to the ELISA plates. The total volume per well was 100 µL. The plates were incubated at 37°C for 1 h. Goat Anti-Human IgG H&L (HRP) (abcam, ab6858) diluted at 1:5000 was added, incubated at 37°C for 1 h, and then subjected to TMB color development. The OD value was determined at 450 nm.
(§2) Blocking Experiment: The experimental steps were the same as the above blocking experiment.

[2] = system: OVCAR3; assay: Cell killing activity; type: cell-based
[3] = system: CHOK1; assay: Cell killing activity; type: cell-based
[4] = target: chimeric antibody No. 62 (VH SEQ ID NO: 1, VL SEQ ID NO: 5); assay: Biacore determination, binding affinity with free MMAE; set-up: species or system mouse; details: antibody immobilized with ProA probe; free MMAE 50-1.85 nM
Experimental: (§3) Antibody immobilization: 20 µg/mL of antibody was immobilized onto the chip surface using a ProA probe; Binding: Antigen MMAE concentrations were 50, 16.7, 5.5, 1.85, and 0 nM. The flow rate was set at 30 µL/min, and the contact time was 600 s; Dissociation: The chip was washed with HEPES buffer for 300 s. Regeneration: Regeneration was performed with 10 mM Glycine-HCl.

[5] = target: chimeric antibody No. 1; assay: as above; set-up: species or system mouse; details: antibody immobilized with ProA probe; free MMAE 50-1.85 nM
Experimental: as §3

[6] = target: chimeric antibody No. 74; assay: as above; set-up: species or system mouse; details: antibody immobilized with ProA probe; free MMAE 50-1.85 nM
Experimental: as §3

[7] = target: chimeric antibody No. 89; assay: as above; set-up: species or system mouse; details: antibody immobilized with ProA probe; free MMAE 50-1.85 nM
Experimental: as §3

[8] = target: chimeric antibody No. 44; assay: as above; set-up: species or system mouse; details: antibody immobilized with ProA probe; free MMAE 50-1.85 nM
Experimental: as §3

[9] = target: chimeric antibody No. 93; assay: as above; set-up: species or system mouse; details: antibody immobilized with ProA probe; free MMAE 50-1.85 nM
Experimental: as §3

[10] = target: chimeric antibody No. 69; assay: as above; set-up: species or system mouse; details: antibody immobilized with ProA probe; free MMAE 50-1.85 nM
Experimental: as §3

[11] = target: chimeric antibody No. 92; assay: as above; set-up: species or system mouse; details: antibody immobilized with ProA probe; free MMAE 50-1.85 nM
Experimental: as §3

[12] = target: humanized antibody ABC3320 (Heavy chain: SEQ ID NO: 163; Light chain: SEQ ID NO: 164); assay: as above; details: antibody immobilized with ProA probe; free MMAE 50-1.85 nM
Experimental: as §3

[13] = system: HCC1954; assay: Cell killing activity; type: cell-based
[14] = system: chimeric antibody No. 62 (VH SEQ ID NO: 1, VL SEQ ID NO: 5); assay: Blocking experiment (ELISA, OVA-MMAF coated); type: binding, mouse; details: MMAE+antibody; OVA-MMAF coated 200 ng/mL; antibody 100 ng/mL
Experimental: as §1

[15] = system: chimeric antibody No. 64 (VH SEQ ID NO: 8, VL SEQ ID NO: 12); assay: Blocking experiment (ELISA, OVA-MMAF coated); type: binding, mouse; details: MMAE+antibody; OVA-MMAF coated 200 ng/mL; antibody 100 ng/mL
Experimental: as §1

[16] = system: chimeric antibody No. J4 (VH SEQ ID NO: 21, VL SEQ ID NO: 25); assay: Blocking experiment (ELISA, OVA-MMAF coated); type: binding, mouse; details: MMAE+antibody; OVA-MMAF coated 200 ng/mL; antibody 100 ng/mL
Experimental: as §1, §2

[17] = system: chimeric antibody No. 133 (VH SEQ ID NO: 46, VL SEQ ID NO: 49); assay: Blocking experiment (ELISA, OVA-MMAF coated); type: binding, mouse; details: MMAE+antibody; OVA-MMAF coated 200 ng/mL; antibody 100 ng/mL
Experimental: as §1, §2

[18] = system: chimeric antibody No. 93 (VH SEQ ID NO: 35, VL SEQ ID NO: 38); assay: Blocking experiment (ELISA, OVA-MMAF coated); type: binding, mouse; details: MMAE+antibody; OVA-MMAF coated 200 ng/mL; antibody 100 ng/mL
Experimental: as §1, §2

[19] = system: chimeric antibody No. 92 (VH SEQ ID NO: 28, VL SEQ ID NO: 32); assay: Blocking experiment (ELISA, OVA-MMAF coated); type: binding, mouse; details: MMAE+antibody; OVA-MMAF coated 200 ng/mL; antibody 100 ng/mL
Experimental: as §1, §2

[20] = system: chimeric antibody No. 132 (VH SEQ ID NO: 39, VL SEQ ID NO: 43); assay: Blocking experiment (ELISA, OVA-MMAF coated); type: binding, mouse; details: MMAE+antibody; OVA-MMAF coated 200 ng/mL; antibody 100 ng/mL
Experimental: as §1, §2

## CC[C@H](C)[C@@H]([C@@H](CC(=O)N1CCC[C@H]1[C@H](OC)[C@@H](C)C(=O)N[C@H](C)[C@@H](O)c1ccccc1)OC)N(C)C(=O)[C@@H](NC(=O)[C@@H](NC)C(C)C)C(C)C [MMAE, monomethyl auristatin E] (H-[NMeV]V[Dil][Dolaproine]-X1)
[1]
  IC50: 1.37 nM
[2]
  MIR (%): 3.69%
[2]; Homo sapiens, OVCAR-3
  IC50: 0.31 nM
[3]
  MIR (%): 83.94%
[3]; Cricetulus griseus, CHO-K1
  IC50: 34.9 nM
[4]
  Kd: 0.741 nM
  ka: 105000 M⁻¹ s⁻¹
  kd: 7.78e-05 s⁻¹
[5]
  Kd: 1.78 nM
  ka: 53500 M⁻¹ s⁻¹
  kd: 9.52e-05 s⁻¹
[6]
  Kd: 2.14 nM
  ka: 84400 M⁻¹ s⁻¹
  kd: 0.00018 s⁻¹
[7]
  Kd: 2.11 nM
  ka: 61600 M⁻¹ s⁻¹
  kd: 0.00013 s⁻¹
[8]
  Kd: 1.78 nM
  ka: 326000 M⁻¹ s⁻¹
  kd: 0.00058 s⁻¹
[9]
  Kd: 2.81 nM
  ka: 85700 M⁻¹ s⁻¹
  kd: 0.000241 s⁻¹
[10]
  Kd: 2.14 nM
  ka: 70200 M⁻¹ s⁻¹
  kd: 0.00015 s⁻¹
[11]
  Kd: 2.66 nM
  ka: 67300 M⁻¹ s⁻¹
  kd: 0.000179 s⁻¹
[12]
  Kd: 0.318 nM
  ka: 100000 M⁻¹ s⁻¹
  kd: 3.18e-05 s⁻¹
[13]
  MIR (%): 60.95%
[13]; Homo sapiens
  IC50: 0.31 nM
[14]
  IC50: 1.43 nM
[15]
  IC50: 4.76 nM
[16]
  IC50: 1.89 nM
[17]
  IC50: 1.59 nM
[18]
  IC50: 54.7 nM
[19]
  IC50: 83.8 nM
[20]
  IC50: 1.32 nM
